Key:
BmrC/BmrD = molecular target: T1, BmrC/BmrD (Bacillus subtilis, UniProt O07549+O07550); test: fluorescence transport assay, inside-out E. coli membrane vesicles; type: biochemical; conditions: 2 mM ATP or GTP, Walker-A K/A double mutant as control
T1 construct: full-length heterodimer overexpressed in E. coli, inside-out membrane vesicles

PatA/PatB = molecular target: T2, PatA/PatB (Streptococcus pneumoniae, UniProt Q8DN70+Q8DN72); test: coupled NADH oxidation assay, GTPase; type: biochemical; conditions: nanodiscs of S. pneumoniae lipids, 4 mM GTP, 2 mM MgCl2, pH 7.4
T2 construct: gene ABC-NP; models PatA 1-564, PatB 1-603

[1] = tested on: Nc1nc2c(ncn2[C@@H]2O[C@H](COP(=O)(O)OP(=O)(O)OP(=O)(O)O)[C@@H](O)[C@H]2O)c(=O)[nH]1; test: purified protein; type: biochemical, Streptococcus pneumoniae; conditions: proteoliposomes of E. coli lipids, 10 mM MgCl2, pH 8, 37 °C, cooperative fit, nH 1.74

T1 sequence (O07550 whole entry): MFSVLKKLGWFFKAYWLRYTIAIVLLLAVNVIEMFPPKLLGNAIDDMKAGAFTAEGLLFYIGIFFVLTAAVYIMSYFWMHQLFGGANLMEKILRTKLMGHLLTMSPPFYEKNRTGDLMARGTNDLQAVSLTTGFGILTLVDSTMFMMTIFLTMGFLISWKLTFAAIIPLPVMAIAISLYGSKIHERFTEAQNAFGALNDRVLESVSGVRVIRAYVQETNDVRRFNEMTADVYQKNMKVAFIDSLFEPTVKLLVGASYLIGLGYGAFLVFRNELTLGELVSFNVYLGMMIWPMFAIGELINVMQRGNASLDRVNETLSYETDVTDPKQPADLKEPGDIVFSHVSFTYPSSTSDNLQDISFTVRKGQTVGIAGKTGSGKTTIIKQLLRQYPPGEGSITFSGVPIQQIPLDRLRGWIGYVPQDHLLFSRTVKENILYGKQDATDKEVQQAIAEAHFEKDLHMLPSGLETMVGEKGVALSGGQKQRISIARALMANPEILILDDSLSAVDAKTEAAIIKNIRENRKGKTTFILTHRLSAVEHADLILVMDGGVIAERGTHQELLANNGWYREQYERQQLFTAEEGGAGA
T1 sequence (O07549 whole entry): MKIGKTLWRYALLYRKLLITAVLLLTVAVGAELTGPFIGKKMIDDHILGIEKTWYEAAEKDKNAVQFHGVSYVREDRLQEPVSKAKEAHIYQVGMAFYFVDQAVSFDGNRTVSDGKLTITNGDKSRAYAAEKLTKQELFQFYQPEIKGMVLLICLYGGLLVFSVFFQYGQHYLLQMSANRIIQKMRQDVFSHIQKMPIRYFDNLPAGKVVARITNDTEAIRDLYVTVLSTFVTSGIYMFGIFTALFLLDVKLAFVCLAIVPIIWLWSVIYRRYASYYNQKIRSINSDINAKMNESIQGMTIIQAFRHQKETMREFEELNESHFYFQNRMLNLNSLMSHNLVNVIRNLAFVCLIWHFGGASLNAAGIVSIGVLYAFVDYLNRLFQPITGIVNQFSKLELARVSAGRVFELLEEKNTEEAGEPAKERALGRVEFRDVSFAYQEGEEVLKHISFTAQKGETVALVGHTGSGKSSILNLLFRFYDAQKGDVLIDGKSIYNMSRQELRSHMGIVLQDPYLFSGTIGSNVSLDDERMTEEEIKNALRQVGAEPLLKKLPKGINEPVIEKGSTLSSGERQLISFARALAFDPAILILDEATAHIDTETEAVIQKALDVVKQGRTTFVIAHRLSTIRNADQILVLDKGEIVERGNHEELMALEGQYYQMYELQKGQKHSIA
T2 sequence (Q8DN70 entry or part of it): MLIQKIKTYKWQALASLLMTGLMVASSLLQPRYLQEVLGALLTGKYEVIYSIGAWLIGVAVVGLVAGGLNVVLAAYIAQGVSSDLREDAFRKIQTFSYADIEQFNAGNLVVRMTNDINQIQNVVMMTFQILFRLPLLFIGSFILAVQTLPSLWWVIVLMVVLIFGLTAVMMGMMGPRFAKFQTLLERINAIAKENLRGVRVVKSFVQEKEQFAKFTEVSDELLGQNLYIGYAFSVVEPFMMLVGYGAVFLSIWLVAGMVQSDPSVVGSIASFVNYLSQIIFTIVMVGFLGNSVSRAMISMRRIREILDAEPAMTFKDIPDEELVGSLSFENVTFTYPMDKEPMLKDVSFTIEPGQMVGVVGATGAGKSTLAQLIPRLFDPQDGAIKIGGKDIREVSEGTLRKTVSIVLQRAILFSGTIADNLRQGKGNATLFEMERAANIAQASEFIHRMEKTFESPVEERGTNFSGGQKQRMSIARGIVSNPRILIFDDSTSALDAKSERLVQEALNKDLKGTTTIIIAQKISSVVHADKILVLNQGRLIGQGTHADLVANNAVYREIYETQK
T2 sequence (Q8DN72 entry or part of it): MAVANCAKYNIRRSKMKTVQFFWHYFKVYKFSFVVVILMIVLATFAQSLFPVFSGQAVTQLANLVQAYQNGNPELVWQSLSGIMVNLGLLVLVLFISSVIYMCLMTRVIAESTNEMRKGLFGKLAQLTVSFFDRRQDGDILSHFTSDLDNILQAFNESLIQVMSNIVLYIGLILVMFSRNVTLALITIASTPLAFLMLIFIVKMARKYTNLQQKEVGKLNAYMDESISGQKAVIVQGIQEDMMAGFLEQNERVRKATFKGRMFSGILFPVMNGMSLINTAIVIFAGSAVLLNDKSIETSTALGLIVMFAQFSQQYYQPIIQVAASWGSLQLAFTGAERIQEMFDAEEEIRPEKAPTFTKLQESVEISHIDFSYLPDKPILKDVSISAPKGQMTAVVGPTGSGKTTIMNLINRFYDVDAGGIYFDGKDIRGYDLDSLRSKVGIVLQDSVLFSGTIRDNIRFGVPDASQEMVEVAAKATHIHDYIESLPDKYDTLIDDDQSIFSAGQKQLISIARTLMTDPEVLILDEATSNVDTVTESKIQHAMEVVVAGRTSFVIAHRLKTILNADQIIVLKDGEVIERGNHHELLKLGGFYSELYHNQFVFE

## CCOc1ccc(-c2nc3ccc(-c4nc5ccc(N6CCN(C)CC6)cc5[nH]4)cc3[nH]2)cc1 [Hoechst 33342, 2′-(4-ethoxyphenyl)-5-(4-methyl-1-piperazinyl)-2,5′-bis-1H-benzimidazole]
BmrC/BmrD; 1 µM Hoechst, 2 mM MgCl2, pH 8.0, 25 °C
  fluorescence transport assay, inside-out E. coli membrane vesicles: BmrC/BmrD behaves as a conventional ABC transporter being more active in the presence of ATP

## COc1cccc2c1C(=O)c1c(O)c3c(c(O)c1C2=O)C[C@@](O)(C(=O)CO)C[C@@H]3O[C@H]1C[C@H](N)[C@H](O)[C@H](C)O1 [doxorubicin]
BmrC/BmrD; 2 µM doxorubicin, 2 mM MgCl2, pH 8.0, 25 and 37 °C
  fluorescence transport assay, inside-out E. coli membrane vesicles: ATP was the preferred energy substrate for BmrC/BmrD at both temperatures

## [O]=[V]([OH])([OH])[OH] [orthovanadate]
PatA/PatB
  % inhibition at 4 mM: 94%

## PatA/PatB (Streptococcus pneumoniae R6)
[1]
  Km: 2640 ± 460 µM

— paper PMC5797166, “A multidrug ABC transporter with a taste for GTP” (Scientific Reports, 2018)
